Experimental data as given in PubChem BioAssay (NCI).
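Compound exposure: 48 hours, 5 concentrations, 96-well plates. At the TGI there is no net growth.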

Legend:
Experiment in all cases: growth of human tumour cells (NCI), 48 h
786-0 renal = test system: 786-0 renal
A498 renal = test system: A498 renal
A549 NSCLC = test system: A549 NSCLC
ACHN renal = test system: ACHN renal
BT-549 breast = test system: BT-549 breast
CAKI-1 renal = test system: CAKI-1 renal
CCRF-CEM leukemia = test system: CCRF-CEM leukemia
COLO 205 colon = test system: COLO 205 colon
EKVX NSCLC = test system: EKVX NSCLC
HCC-2998 colon = test system: HCC-2998 colon
HCT-116 colon = test system: HCT-116 colon
HCT-15 colon = test system: HCT-15 colon
HOP-62 NSCLC = test system: HOP-62 NSCLC
KM12 colon = test system: KM12 colon
LOX IMVI melanoma = test system: LOX IMVI melanoma
M14 melanoma = test system: M14 melanoma
MALME-3M melanoma = test system: MALME-3M melanoma
MCF7 breast = test system: MCF7 breast
MDA-MB-231 breast = test system: MDA-MB-231 breast
MDA-MB-435 = test system: MDA-MB-435
MDA-N = test system: MDA-N
NCI-H226 lung = test system: NCI-H226 lung
NCI-H23 lung = test system: NCI-H23 lung
NCI-H460 lung = test system: NCI-H460 lung
NCI-H522 lung = test system: NCI-H522 lung
NCI/ADR-RES ovarian = test system: NCI/ADR-RES ovarian
OVCAR-3 ovarian = test system: OVCAR-3 ovarian
OVCAR-4 ovarian = test system: OVCAR-4 ovarian
OVCAR-5 ovarian = test system: OVCAR-5 ovarian
OVCAR-8 ovarian = test system: OVCAR-8 ovarian
PC-3 prostate = test system: PC-3 prostate
RPMI-8226 leukemia = test system: RPMI-8226 leukemia
RXF 393 renal = test system: RXF 393 renal
SF-268 CNS = test system: SF-268 CNS
SF-295 CNS = test system: SF-295 CNS
SF-539 CNS = test system: SF-539 CNS
SK-MEL-2 melanoma = test system: SK-MEL-2 melanoma
SK-MEL-28 melanoma = test system: SK-MEL-28 melanoma
SK-OV-3 ovarian = test system: SK-OV-3 ovarian
SN12C renal = test system: SN12C renal
SNB-19 CNS = test system: SNB-19 CNS
SNB-75 CNS = test system: SNB-75 CNS
SW-620 colon = test system: SW-620 colon
T-47D breast = test system: T-47D breast
TK-10 renal = test system: TK-10 renal
U251 CNS = test system: U251 CNS
UACC-257 melanoma = test system: UACC-257 melanoma
UO-31 renal = test system: UO-31 renal

Measured: TGI

Cc1cc2[nH]c3c(C#N)c(-c4ccccc4)c(CN4CCOCC4)c(=O)n3c2cc1C
> 100 µM: all assays above
